The target of assay [1] is T1, Tubulin (Homo sapiens) (UniProt P68371+Q9H4B7+P0DPH7+P68366+Q13509+Q71U36+P04350+Q3ZCM7+P07437+P68363+Q9BQE3+Q6PEY2+Q13885+Q9BVA1+Q9BUF5). Description: Induction of microtubule fragmentation in human NCI-H1975 cells at 50 nM incubated for 12 hrs by DAPI staining based laser confocal microscopic method. It counts as cell-based.
Assay [2] deals with Katanin p60 ATPase-containing subunit A1 (Homo sapiens) (UniProt O75449). As to the kind of experiment: Binding affinity to katanin p60 in human NCI-H1975 cells using biotin labelled compound incubated for 16 hrs by streptavidin based immunoprecipitation method. It counts as cell-based.
Chain of Katanin p60 ATPase-containing subunit A1 (Homo sapiens) (O75449 whole entry, the tested form may be a part): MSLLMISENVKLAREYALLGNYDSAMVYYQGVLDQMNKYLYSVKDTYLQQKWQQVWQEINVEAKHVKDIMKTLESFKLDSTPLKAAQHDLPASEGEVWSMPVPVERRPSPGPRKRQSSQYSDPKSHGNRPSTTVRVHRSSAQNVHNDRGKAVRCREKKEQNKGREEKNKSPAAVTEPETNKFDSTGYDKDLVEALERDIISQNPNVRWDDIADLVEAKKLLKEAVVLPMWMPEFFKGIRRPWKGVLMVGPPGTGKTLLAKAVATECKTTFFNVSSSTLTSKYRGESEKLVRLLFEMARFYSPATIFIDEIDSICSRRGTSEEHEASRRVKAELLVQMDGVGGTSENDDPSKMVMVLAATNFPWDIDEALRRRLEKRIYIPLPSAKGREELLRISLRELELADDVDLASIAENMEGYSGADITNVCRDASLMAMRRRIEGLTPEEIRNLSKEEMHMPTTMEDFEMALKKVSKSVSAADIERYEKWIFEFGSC
Assay [3] deals with T1, Tubulin (Homo sapiens). Description: Induction of microtubule fragmentation in human NCI-H1975 cells at 30 nM incubated for 12 hrs by DAPI staining based laser confocal microscopic method. It counts as cell-based.
The next assay has as its system NCI-H1975. Description: Antiproliferative activity against human NCI-H1975 cells incubated for 48 hrs by celltiter-Glo assay. The settings on record: NCI-H1975, 48 h. It counts as functional, cell-based.
Assay [4] addresses T1, Tubulin (Homo sapiens). As to the kind of experiment: Induction of microtubule fragmentation in human NCI-H1975 cells at 140 nM incubated for 12 hrs by DAPI staining based laser confocal microscopic method. It counts as cell-based.

Activity calls are given as the source filed them. The calls are words filed in the database; no cut-off is given here.

With `CCOc1ccc(-c2nc(/C(N)=N/O)c3[nH]c(=O)n(-c4ccccc4OC)c3n2)cc1`, on Tubulin (Homo sapiens) [1], the outcome was Active.

As to `CCOc1ccc(-c2nc(/C(N)=N/O)c3[nH]c(=O)n(-c4cccc(C(=O)NCCCCCNC(=O)CCCC[C@@H]5SC[C@@H]6NC(=O)N[C@@H]65)c4)c3n2)cc1`, the result in assay [2] was Active. For the compound `CCOc1ccc(-c2nc(C(N)=O)c3[nH]c(=O)n(-c4ccccc4OC)c3n2)cc1`, the result on Tubulin (Homo sapiens) [3] was Active. With `CCOc1ccc(-c2nc(C(N)=O)c3[nH]c(=O)n(-c4cccc(C(=O)NCCCCCNC(=O)CCCC[C@@H]5SC[C@@H]6NC(=O)N[C@@H]65)c4)c3n2)cc1`, in assay [2], the result was Active.

Turning to `COc1ccccc1-n1c(=O)[nH]c2c(C(N)=O)nc(-c3ccc4c(c3)OCO4)nc21`, half-maximal inhibition in the assay on NCI-H1975 (IC50) was put at 7.6 µM. As for `CCOc1ccc(-c2nc(C(=O)NO)c3[nH]c(=O)n(-c4ccccc4OC)c3n2)cc1`, at Tubulin (Homo sapiens) [4], the result was Active. Turning to `CC(C)(C)OC(=O)NCCCCCNC(=O)CCCC[C@@H]1SC[C@@H]2NC(=O)N[C@@H]21`, the outcome in assay [2] was inactive.

In general, IC50 refers to the concentration that gives 50% inhibition.

The values above are taken from ChEMBL document CHEMBL4359863, “Structure-guided development of purine amide, hydroxamate, and amidoxime for the inhibition of non-small cell lung cancer” (Eur J Med Chem, 2019).
